Reference: ChEMBL document CHEMBL1156482, “Molecular mechanism of action of monocyclam versus bicyclam non-peptide antagonists in the CXCR4 chemokine receptor” (J Biol Chem, 2007)
pIC50: −log10 of the molar value. The source made the active and inactive calls. No cut-off for these calls is given here.

Experiments:
[1] = test system: Human immunodeficiency virus 1; test: Antiviral activity against HIV1 clinical isolate 10 infected U87.CD4 cells expressing human CXCR4 E288A mutant; format: functional, organism-based; details: Human immunodeficiency virus 1, U87.CD4
[2] = test system: Human immunodeficiency virus 1; test: Antiviral activity against HIV1 clinical isolate 10 infected in U87.CD4 cells expressing human CXCR4 D171N mutant; format: functional, organism-based; details: Human immunodeficiency virus 1, U87.CD4
[3] = test system: Human immunodeficiency virus 1; test: Antiviral activity against HIV1 NL43 infected in U87.CD4 cells expressing human CXCR4 D262N mutant; format: functional, organism-based; details: Human immunodeficiency virus 1, NL43, U87.CD4
[4] = test system: Human immunodeficiency virus 1; test: Antiviral activity against HIV1 NL43 infected in U87.CD4 cells expressing human CXCR4 D171N/D262N mutant; format: functional, organism-based
[5] = test system: Human immunodeficiency virus 1; test: Antiviral activity against HIV1 NDK infected in U87.CD4 cells expressing human wild type CXCR4; format: functional, organism-based; details: Human immunodeficiency virus 1, NDK
[6] = test system: Human immunodeficiency virus 1; test: Antiviral activity against HIV1 clinical isolate 10 infected in U87.CD4 cells expressing human wild type CXCR4; format: functional, organism-based; details: Human immunodeficiency virus 1, U87.CD4
[7] = test system: C-X-C chemokine receptor type 4 (Homo sapiens), P61073 [D171N]; test: Displacement of [125I]12G5 antibody from transmembrane domain 4 of human CXCR4 D171N mutant expressed in COS7 cells; format: cell-based; details: COS-7
C-X-C chemokine receptor type 4 (Homo sapiens), P61073 [D171N], sequence (P61073 whole entry D171N, the tested form may be a part): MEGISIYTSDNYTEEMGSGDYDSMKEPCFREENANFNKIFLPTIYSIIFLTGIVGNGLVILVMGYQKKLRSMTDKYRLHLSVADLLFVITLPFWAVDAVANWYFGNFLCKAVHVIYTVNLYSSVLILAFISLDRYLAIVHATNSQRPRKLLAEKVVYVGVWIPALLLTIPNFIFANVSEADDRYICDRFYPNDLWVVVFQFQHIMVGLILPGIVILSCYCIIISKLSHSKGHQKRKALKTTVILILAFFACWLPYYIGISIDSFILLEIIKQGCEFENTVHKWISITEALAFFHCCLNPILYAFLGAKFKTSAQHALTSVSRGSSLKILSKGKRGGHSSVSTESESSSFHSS

[8] = test system: C-X-C chemokine receptor type 4 (Homo sapiens), P61073 [H113A]; test: Displacement of [125I]12G5 antibody from transmembrane domain 3 of human CXCR4 H113A mutant expressed in COS7 cells; format: cell-based; details: COS-7
C-X-C chemokine receptor type 4 (Homo sapiens), P61073 [H113A], sequence (P61073 whole entry H113A, the tested form may be a part): as the sequence (P61073 whole entry D171N, the tested form may be a part) above, with H113A, N171D counted along it

[9] = test system: Human immunodeficiency virus 1; test: Antiviral activity against HIV1 NDK infected in U87.CD4 cells expressing human CXCR4 D262N mutant; format: functional, organism-based; details: Human immunodeficiency virus 1, NDK
[10] = test system: Human immunodeficiency virus 1; test: Antiviral activity against HIV1 clinical isolate 10 infected in U87.CD4 cells expressing human CXCR4 H281A mutant; format: functional, organism-based; details: Human immunodeficiency virus 1, U87.CD4
[11] = test system: C-X-C chemokine receptor type 4 (Homo sapiens), P61073 [I259A]; details: COS-7
C-X-C chemokine receptor type 4 (Homo sapiens), P61073 [I259A], sequence (P61073 whole entry I259A): as the sequence (P61073 whole entry D171N, the tested form may be a part) above, with N171D, I259A counted along it

[12] = test system: Human immunodeficiency virus 1; test: Antiviral activity against HIV1 NL43 infected in U87.CD4 cells expressing human CXCR4 D171N mutant; format: functional, organism-based; details: Human immunodeficiency virus 1, NL43, U87.CD4
[13] = test system: Human immunodeficiency virus 1; test: Antiviral activity against HIV1 NL43 infected in U87.CD4 cells expressing human CXCR4 E288A mutant; format: functional, organism-based
[14] = test system: Human immunodeficiency virus 1; test: Antiviral activity against HIV1 NL43 infected in U87.CD4 cells expressing human CXCR4 H281A mutant; format: functional, organism-based; details: Human immunodeficiency virus 1, NL43, U87.CD4
[15] = test system: Human immunodeficiency virus 1; test: Antiviral activity against HIV1 NDK infected in U87.CD4 cells expressing human CXCR4 H281A mutant; format: functional, organism-based; details: Human immunodeficiency virus 1, NDK
[16] = test system: Human immunodeficiency virus 1; test: Antiviral activity against HIV1 NDK infected in U87.CD4 cells expressing human CXCR4 E288A mutant; format: functional, organism-based; details: Human immunodeficiency virus 1, NDK
[17] = test system: Human immunodeficiency virus 1; test: Antiviral activity against HIV1 clinical isolate 10 infected in U87.CD4 cells expressing human CXCR4 D262N mutant; format: functional, organism-based; details: Human immunodeficiency virus 1, U87.CD4
[18] = test system: Human immunodeficiency virus 1; test: Antiviral activity against HIV1 NDK infected in U87.CD4 cells expressing human CXCR4 D171N mutant; format: functional, organism-based; details: Human immunodeficiency virus 1, NDK
[19] = test system: Human immunodeficiency virus 1; test: Antiviral activity against HIV1 NDK infected in U87.CD4 cells expressing human CXCR4 D171ND262N mutant; format: functional, organism-based; details: Human immunodeficiency virus 1, NDK
[20] = test system: C-X-C chemokine receptor type 4 (Homo sapiens), P61073 [H281A]; test: Antagonist activity at human CXCR4 H281A mutant expressed in U87.CD4 cells assessed as inhibition of CXCL12-induced calcium mobilization; format: functional, cell-based
C-X-C chemokine receptor type 4 (Homo sapiens), P61073 [H281A], sequence (P61073 whole entry H281A): as the sequence (P61073 whole entry D171N, the tested form may be a part) above, with N171D, H281A counted along it

[21] = test system: Human immunodeficiency virus 1; test: Antiviral activity against HIV1 clinical isolate 10 infected in U87.CD4 cells expressing human CXCR4 D171ND262N mutant; format: functional, organism-based; details: Human immunodeficiency virus 1, U87.CD4
[22] = test system: Human immunodeficiency virus 1; test: Antiviral activity against HIV1 NL43 infected in U87.CD4 cells expressing human wild type CXCR4; format: functional, organism-based; details: Human immunodeficiency virus 1, NL43, U87.CD4

Compound c1cc(CN2CCCNCCNCCCNCC2)ccc1CN1CCCNCCNCCCNCC1 [PLERIXAFOR] has a pIC50 [1] of under 6.92, a pIC50 [2] of 7.72 and a pIC50 [3] of under 6.22. The Activity [4] was “inactive”, the pIC50 [5] was 8.12 and the pIC50 [6] was 8.52. For the same compound, the logKi [7] was -4.87, the logKi [8] was -5.71 and the pIC50 [9] was under 5.52. The pIC50 [10] was 8.62, the logKi [11] was -5.81 and the pIC50 [12] was 7.34. The Activity [13] was “inactive”, the pIC50 [14] was over 8.72 and the pIC50 [15] was over 8.72. It also gave a pIC50 [16] of under 5.22, a pIC50 [17] of 5.59 and a pIC50 [18] of 7.77. The pIC50 [19] was under 5.52, the Activity [20] was “Active” and the pIC50 [21] was 5.57. For the same compound, the pIC50 [22] was 7.85.
